Assay results from paper PMC11671526, “β-caryophyllene sensitizes hepatocellular carcinoma cells to chemotherapeutics and inhibits cell malignancy through targeting MAPK signaling pathway” (Frontiers in Pharmacology, 2024).

Tested on: HepG2 cells
Assay: RNA-seq transcriptome analysis of differentially expressed genes
Assay type: cell-based, human
Conditions: BCP vs control HepG2
Protocol: The quality and concentration of RNA were examined by MOPS RNA electrophoresis and Eppendorf BioSpectrometer. The transcriptome analysis was performed by BGI-Wuhan China. The RNA-seq dataset of this study is accessible in the Gene Expression Omnibus (GEO) with an access number of GSE276099. The sequence library for each sample was prepared using the BGISEQ-500 platform with a 50-bp single-end (SE50) format. […]2.2.1) was used to align the clean reads to the reference genome and alignment of the clean reads to the reference genes was carried out using Bowtie2 (v2.4.5) ([Langmead and Salzberg, 2012]; [Kim et al., 2015]). Gene expression levels were calculated by RSEM (v1.3.1) ([Li and Dewey, 2011]). Analysis of differential gene expression was performed using edgeR in the Bioconductor software package ([Robinson et al., 2010]). Using a standard protocol, the RNA samples were also examined by reverse transcription and quantitative polymerase chain reaction (RT-qPCR). In brief, for reverse transcription, total RNA (1 μg) and gDNA wiper Mix were incubated at 42°C for 2 min. The samples were immediately incubated with a master mix containing 10 pmol/μL of poly (dT) primers at 37°C for 15 min and 85°C for 5 s. To detect the expression of specific genes by qPCR analysis, gene-specific primers (shown in Supplementary Table S1) were mixed with the ChamQ Universal SYBER qPCR Master Mix and the reaction was conducted using the Roche Lightcycler 480. The GAPDH value was used to normalize the results of each gene. The RNA-seq data of BCP-treated HepG2 cells were screened for DEGs. Gene symbols were turned into Enterz ID using the org.Hs.eg.db Bio-conductor R package. The cluster profiler (v4.6.2) package was used to perform the Kyoto Encyclopedia of Genes and Genomes (KEGG) and Gene Ontology (GO) enrichment analyses ([Wu et al., 2021]). Following the Transcript per million (TPM) data of the dataset, the line chart, and heatmap were plotted using ggplot2 and pheatmap R packages, respectively.

`C=C1CC/C=C(\C)CC[C@@H]2[C@@H]1CC2(C)C` [BCP, β-caryophyllene] was tested, and the “logFC APOBEC3C” value (gene APOBEC3C, RNA-seq) was -0.5856, the “change APOBEC3C” value (gene APOBEC3C, DEG direction) was “Down” and the “logFC ARRB1” value (gene ARRB1, RNA-seq) was -0.7626. For the same compound, the “change ARRB1” value (gene ARRB1, DEG direction) was “Down”, the “logFC ATP9A” value (gene ATP9A, RNA-seq) was 0.6507 and the “change ATP9A” value (gene ATP9A, DEG direction) was “Up”. For the same compound, the “logFC ATP11C” value (gene ATP11C, RNA-seq) was -0.7847, the “change ATP11C” value (gene ATP11C, DEG direction) was “Down” and the “logFC AXIN2” value (gene AXIN2, RNA-seq) was 0.6672. The “change AXIN2” value (gene AXIN2, DEG direction) was “Up”, the “logFC B4GALNT4” value (gene B4GALNT4, RNA-seq) was -0.5947 and the “change B4GALNT4” value (gene B4GALNT4, DEG direction) was “Down”. For the same compound, the “logFC BACE2” value (gene BACE2, RNA-seq) was 0.7147, the “change BACE2” value (gene BACE2, DEG direction) was “Up” and the “logFC BICDL1” value (gene BICDL1, RNA-seq) was -0.8616. The “change BICDL1” value (gene BICDL1, DEG direction) was “Down”, the “logFC BIRC7” value (gene BIRC7, RNA-seq) was 0.7538 and the “change BIRC7” value (gene BIRC7, DEG direction) was “Up”. The “logFC BIVM-ERCC5” value (gene BIVM-ERCC5, RNA-seq) was 0.699, the “change BIVM-ERCC5” value (gene BIVM-ERCC5, DEG direction) was “Up” and the “logFC BLCAP” value (gene BLCAP, RNA-seq) was -0.6138. The “change BLCAP” value (gene BLCAP, DEG direction) was “Down”, the “logFC BMP2” value (gene BMP2, RNA-seq) was 0.7686 and the “change BMP2” value (gene BMP2, DEG direction) was “Up”. For the same compound, the “logFC BUB1B-PAK6” value (gene BUB1B-PAK6, RNA-seq) was -1.6183, the “change BUB1B-PAK6” value (gene BUB1B-PAK6, DEG direction) was “Down” and the “logFC C1orf198” value (gene C1orf198, RNA-seq) was 0.6. The “change C1orf198” value (gene C1orf198, DEG direction) was “Up”, the “logFC C1orf216” value (gene C1orf216, RNA-seq) was -0.8102 and the “change C1orf216” value (gene C1orf216, DEG direction) was “Down”. For the same compound, the “logFC C3orf80” value (gene C3orf80, RNA-seq) was -1.174, the “change C3orf80” value (gene C3orf80, DEG direction) was “Down” and the “logFC C4B” value (gene C4B, RNA-seq) was 2.54. For the same compound, the “change C4B” value (gene C4B, DEG direction) was “Up”, the “logFC C11orf86” value (gene C11orf86, RNA-seq) was -1.473 and the “change C11orf86” value (gene C11orf86, DEG direction) was “Down”. The “logFC C19orf71” value (gene C19orf71, RNA-seq) was 0.8161, the “change C19orf71” value (gene C19orf71, DEG direction) was “Up” and the “logFC CA5B” value (gene CA5B, RNA-seq) was -1.2201. The “change CA5B” value (gene CA5B, DEG direction) was “Down”, the “logFC CARD6” value (gene CARD6, RNA-seq) was -1.5314 and the “change CARD6” value (gene CARD6, DEG direction) was “Down”. The “logFC CCDC24” value (gene CCDC24, RNA-seq) was 1.127, the “change CCDC24” value (gene CCDC24, DEG direction) was “Up” and the “logFC CCDC86” value (gene CCDC86, RNA-seq) was -0.7779. The “change CCDC86” value (gene CCDC86, DEG direction) was “Down”, the “logFC CCL2” value (gene CCL2, RNA-seq) was -1.48 and the “change CCL2” value (gene CCL2, DEG direction) was “Down”. The “logFC CCL5” value (gene CCL5, RNA-seq) was -1.124, the “change CCL5” value (gene CCL5, DEG direction) was “Down” and the “logFC CCL26” value (gene CCL26, RNA-seq) was -1.513. For the same compound, the “change CCL26” value (gene CCL26, DEG direction) was “Down”, the “logFC CELF2” value (gene CELF2, RNA-seq) was 0.8875 and the “change CELF2” value (gene CELF2, DEG direction) was “Up”. The “logFC CHST2” value (gene CHST2, RNA-seq) was -1.145, the “change CHST2” value (gene CHST2, DEG direction) was “Down” and the “logFC CKAP2L” value (gene CKAP2L, RNA-seq) was 0.6857. The “change CKAP2L” value (gene CKAP2L, DEG direction) was “Up”, the “logFC CLDN2” value (gene CLDN2, RNA-seq) was 1.355 and the “change CLDN2” value (gene CLDN2, DEG direction) was “Up”. The “logFC CLIP2” value (gene CLIP2, RNA-seq) was -0.6426, the “change CLIP2” value (gene CLIP2, DEG direction) was “Down” and the “logFC CLK1” value (gene CLK1, RNA-seq) was 0.5953. The “change CLK1” value (gene CLK1, DEG direction) was “Up”, the “logFC CLTCL1” value (gene CLTCL1, RNA-seq) was 0.7125 and the “change CLTCL1” value (gene CLTCL1, DEG direction) was “Up”. The “logFC COL1A1” value (gene COL1A1, RNA-seq) was 0.6324, the “change COL1A1” value (gene COL1A1, DEG direction) was “Up” and the “logFC COL4A1” value (gene COL4A1, RNA-seq) was 0.7663. The “change COL4A1” value (gene COL4A1, DEG direction) was “Up”, the “logFC COL7A1” value (gene COL7A1, RNA-seq) was 0.6003 and the “change COL7A1” value (gene COL7A1, DEG direction) was “Up”. For the same compound, the “logFC CPM” value (gene CPM, RNA-seq) was 0.6061, the “change CPM” value (gene CPM, DEG direction) was “Up” and the “logFC CPS1” value (gene CPS1, RNA-seq) was 0.6121. For the same compound, the “change CPS1” value (gene CPS1, DEG direction) was “Up”, the “logFC CRABP2” value (gene CRABP2, RNA-seq) was -0.6843 and the “change CRABP2” value (gene CRABP2, DEG direction) was “Down”. The “logFC CREB3L4” value (gene CREB3L4, RNA-seq) was 0.5981, the “change CREB3L4” value (gene CREB3L4, DEG direction) was “Up” and the “logFC CREG2” value (gene CREG2, RNA-seq) was 0.6638. For the same compound, the “change CREG2” value (gene CREG2, DEG direction) was “Up”, the “logFC CRELD1” value (gene CRELD1, RNA-seq) was 0.9439 and the “change CRELD1” value (gene CRELD1, DEG direction) was “Up”. For the same compound, the “logFC CSRP2” value (gene CSRP2, RNA-seq) was 0.7909, the “change CSRP2” value (gene CSRP2, DEG direction) was “Up” and the “logFC CYP1A1” value (gene CYP1A1, RNA-seq) was -0.7093. For the same compound, the “change CYP1A1” value (gene CYP1A1, DEG direction) was “Down”, the “logFC CYP3A5” value (gene CYP3A5, RNA-seq) was -1.0618 and the “change CYP3A5” value (gene CYP3A5, DEG direction) was “Down”. For the same compound, the “logFC CYP3A7” value (gene CYP3A7, RNA-seq) was -2.402, the “change CYP3A7” value (gene CYP3A7, DEG direction) was “Down” and the “logFC CYP11A1” value (gene CYP11A1, RNA-seq) was -1.306. The “change CYP11A1” value (gene CYP11A1, DEG direction) was “Down”, the “logFC CYP26B1” value (gene CYP26B1, RNA-seq) was -0.8298 and the “change CYP26B1” value (gene CYP26B1, DEG direction) was “Down”. The “logFC DAAM1” value (gene DAAM1, RNA-seq) was -0.6083, the “change DAAM1” value (gene DAAM1, DEG direction) was “Down” and the “logFC DDIT3” value (gene DDIT3, RNA-seq) was 0.9459. For the same compound, the “change DDIT3” value (gene DDIT3, DEG direction) was “Up”, the “logFC DDR2” value (gene DDR2, RNA-seq) was 0.7117 and the “change DDR2” value (gene DDR2, DEG direction) was “Up”. For the same compound, the “logFC DENND2D” value (gene DENND2D, RNA-seq) was -1.958, the “change DENND2D” value (gene DENND2D, DEG direction) was “Down” and the “logFC DEPDC1” value (gene DEPDC1, RNA-seq) was 0.5867. For the same compound, the “change DEPDC1” value (gene DEPDC1, DEG direction) was “Up”, the “logFC DGKD” value (gene DGKD, RNA-seq) was 0.5855 and the “change DGKD” value (gene DGKD, DEG direction) was “Up”. The “logFC DLG2” value (gene DLG2, RNA-seq) was -1.169, the “change DLG2” value (gene DLG2, DEG direction) was “Down” and the “logFC DNER” value (gene DNER, RNA-seq) was 1.171. For the same compound, the “change DNER” value (gene DNER, DEG direction) was “Up”, the “logFC DOCK4” value (gene DOCK4, RNA-seq) was -0.9058 and the “change DOCK4” value (gene DOCK4, DEG direction) was “Down”. The “logFC EFNB2” value (gene EFNB2, RNA-seq) was -0.688, the “change EFNB2” value (gene EFNB2, DEG direction) was “Down” and the “logFC EGLN3” value (gene EGLN3, RNA-seq) was -0.764.
